Values quoted from earlier work, collected in patent publication US20160231323A1, “PROTECTION OF TCR SIGNALING CHAINS IN CANCER PATIENTS AND ENHANCEMENT OF CAR-T CELL THERAPY” (Batu Biologics, Inc., priority 2015, published 2016).

How the values were obtained:
[1] = tested on: sepsis-induced immune suppression; details: animals undergoing experimental sepsis
[2] = tested on: tumors; details: paradoxical oxidative mechanism
[3] = tested on: CD8(+) effector and effector memory T cells; details: mice given vitamin C treated DC loaded with tumor lysate
[4] = tested on: HIF-1 alpha; details: results in suppressed angiogenic activity
[5] = tested on: proliferating tumor endothelial cells
[6] = tested on: plasma CRP; details: 1000 mg/day for 2 months, healthy nonsmokers, versus vitamin E or placebo
[7] = tested on: PGE 2; details: several animal models
[8] = tested on: markers of oxidative stress; details: smokers
[9] = tested on: constitutively activated neutrophils
[10] = tested on: Kaposi Sarcoma; details: oral administration
[11] = tested on: TCR-ζ; details: addition to co-incubation of cancer patient neutrophils with healthy lymphocytes
[12] = tested on: IFN-[…] and IL-2 production; details: daily dose of 750 mg for 2 weeks, Duke's C and D colorectal cancer

O=C1O[C@H]([C@@H](O)CO)C(O)=C1O [ascorbic acid]
immune suppression in experimental sepsis [1]: blocked immune suppression | effect on tumors [2]: direct killing effect | frequency of effector and effector memory T cells ([3]; versus control DC): higher frequency | ex vivo killing of tumor cells by the T cells ([3]; versus controls): increased ex vivo killing effect | tumor expression of HIF-1 alpha [4]: reduce tumor expression of HIF-1 alpha | effect on proliferating tumor endothelial cells [5]: Direct suppression | plasma CRP levels [6]: statistically significant decrease

COc1ccc2c(c1)c(CC(=O)O)c(C)n2C(=O)c1ccc(Cl)cc1 [indomethacin]
metastatic progression [7]: significantly impedes metastatic progession

CC(=O)N[C@@H](CS)C(=O)O [n-acetylcysteine]
immune suppression in experimental sepsis [1]: blocked immune suppression | markers of oxidative stress [8]: suppression of markers of oxidative stress | clinical effect in sepsis ([9]; as a monotherapy): little clinical effect | constitutively activated neutrophils in sepsis patients ([9]; therapeutic administration): suppression of the constitutively activated neutrophils | angiogenesis [10]: blocks angiogenesis | growth of Kaposi Sarcoma [10]: suppresses growth of Kaposi Sarcoma

catalase
TCR-ζ downregulation [11]: suppressed TCR-ζ downregulation

vitamin E
IFN-[…] and IL-2 production [12]: restoration of IFN-[…] and IL-2 production
